Where “and” joins values, the source holds several entries; their conditions need not be identical. Equal values may be shown once.
Tested on: patients with moderate to severe MGD
Experiment: Clinical trial (Example 8): topical Spironolactone (3 mg/ml) in MGD, retrospective pre-post
Details: for improvement in self-reported global assessment scores / mean improvement in obstruction score / mean improvement in turbidity score / mean improvement in vascularity score / mean improvement in zone A score: positive = score decrease; for Anterior Blepharitis, mean change / Obstruction, mean change / Turbidity, mean change / Vascularity, mean change / Zone A, mean change / Anterior Blepharitis, Mean / Obstruction, Mean / Turbidity, Mean / Vascularity, Mean / Zone A, Mean: scale 0-4; for Subjective Global Assessment, mean change / Global Evaluation, Mean / Global Evaluation, mean change / Subjective Global Assessment, Mean: scale 0-10
[1] = baseline vs follow up 1, low Schirmer's, n=27
[2] = baseline vs follow up 1, low Schirmer's, n=27, scale 0-3
[3] = baseline vs follow up 1, normal Schirmer's, n=75
[4] = final follow-up, patients with >1 follow-ups, low Schirmer's, n=10
[5] = final follow-up, patients with >1 follow-ups, low Schirmer's, n=10, scale 0-3
[6] = final follow-up, patients with >1 follow-ups, normal Schirmer's, n=28
[7] = final follow-up, patients with >1 follow-ups, normal Schirmer's, n=28, scale 0-3
[8] = follow-up 1, low Schirmer's, n=27 (FIG. 10)
[9] = follow-up 1, normal Schirmer's, n=75 (FIG. 9)
[10] = follow-up 1, patients with >1 follow-ups, low Schirmer's, n=10
[11] = follow-up 1, patients with >1 follow-ups, low Schirmer's, n=10, scale 0-3
[12] = follow-up 1, patients with >1 follow-ups, normal Schirmer's, n=28
[13] = follow-up 1, patients with >1 follow-ups, normal Schirmer's, n=28, scale 0-3
[14] = follow-up 1 vs final follow-up, low Schirmer's, n=10
[15] = follow-up 1 vs final follow-up, low Schirmer's, n=10, scale 0-3
[16] = follow-up 1 vs final follow-up, normal Schirmer's, n=28
[17] = follow-up 1 vs final follow-up, normal Schirmer's, n=28, scale 0-3
[18] = post-treatment follow-up 1, low Schirmer's, n=27
[19] = post-treatment follow-up 1, low Schirmer's, n=27, scale 0-3
[20] = post-treatment follow-up 1, normal Schirmer's, n=75
[21] = post-treatment follow-up 1, normal Schirmer's, n=75, scale 0-3

CC(=O)SC1CC2=CC(=O)CCC2(C)C2CCC3(C)C(CCC34CCC(=O)O4)C12 (stereo not drawn) [spironolactone, 7α-acetylthio-3-oxo-17α-pregn-4-ene-21,17-carbolactone]
Schirmer's OD, mean change [1]: 2.61±7.03 mm and 2.611 mm | Schirmer's OS, mean change [1]: 2.33±4.74 mm and 2.327 mm | Vision OS, mean change [1]: −0.0198±0.078 log Mar units and −0.0198 log Mar units | improvement in self-reported global assessment scores [1]: 0.98±2.18 | mean improvement in obstruction score [1]: 0.39±1.48 | mean improvement in turbidity score [1]: 0.69±0.76 | mean improvement in vascularity score [1]: 0.33±0.55 | mean improvement in zone A score [1]: 0.63±1.21 | Keratitis OS Corneal, mean change [2]: 0±0.4 and 0 | Keratitis OS Nasal, mean change [2]: 0.15±0.70 and 0.1538 | Keratitis OS Temporal, mean change [2]: 0.038±0.56 and 0.03846 | Anterior Blepharitis, mean change [1]: 0.0±0.64 and 0 | Obstruction, mean change [1]: −0.3889 | Turbidity, mean change [1]: −0.6852 | Vascularity, mean change [1]: −0.3333 | Zone A, mean change [1]: −0.6296 | Subjective Global Assessment, mean change [1]: −0.9815 | Schirmer's OD, mean change [3]: 0.11±8.07 mm and 0.1096 mm | Schirmer's OS, mean change [3]: 0.92±9.43 mm and 0.9178 mm | improvement in self-reported global assessment scores [3]: 1.29±1.80 | mean improvement in obstruction score [3]: 0.36±0.90 | mean improvement in turbidity score [3]: 0.93±0.73 | mean improvement in vascularity score [3]: 0.31±0.713 | mean improvement in zone A score [3]: 0.53±0.83 | Keratitis OS Corneal, mean change (baseline vs follow up 1, normal Schirmer's, n=75, scale 0-3): 0±0.32 and 0 | Anterior Blepharitis, mean change [3]: 0.04±0.70 and 0.04 | Obstruction, mean change [3]: −0.3633 | Turbidity, mean change [3]: −0.9267 | Vascularity, mean change [3]: −0.31 | Zone A, mean change [3]: −0.5533 | Subjective Global Assessment, mean change [3]: −1.287 | Schirmer's OD, Mean [4]: 11.7±10.94 and 11.7 | Schirmer's OS, Mean [4]: 8.78±9.98 and 8.778 | Vision OD, Mean [4]: 0.13±0.15 log Mar units and 0.1264 log Mar units | Vision OS, Mean [4]: 0.11±0.11 log Mar units and 0.1059 log Mar units | Keratitis OD Corneal, Mean [5]: 0.0±0.0 and 0 | Keratitis OD Nasal, Mean [5]: 0.75±0.63 and 0.75 | Keratitis OD Temporal, Mean [5]: 0.7±0.71 and 0.7 | Keratitis OS Corneal, Mean [5]: 0.33±0.5 and 0.3333 | Keratitis OS Nasal, Mean [5]: 1.06±0.92 and 1.056 | Keratitis OS Temporal, Mean [5]: 0.83±0.79 and 0.8333 | Anterior Blepharitis, Mean [4]: 0.2±0.42 and 0.2 | Obstruction, Mean [4]: 0.75±0.42 and 0.75 | Turbidity, Mean [4]: 2.1±0.74 and 2.1 | Vascularity, Mean [4]: 1.4±0.77 and 1.4 | Zone A, Mean [4]: 2.8±0.79 and 2.8 | Global Evaluation, Mean [4]: 4.4±2.62 and 4.4 | Schirmer's OD, Mean [6]: 18.52±9.83 and 18.52 | Schirmer's OS, Mean [6]: 17.04±8.48 and 17.04 | Vision OD, Mean [6]: 0.05±0.18 log Mar units and 0.04593 log Mar units | Vision OS, Mean [6]: 0.05±0.12 log Mar units and 0.04933 log Mar units | Keratitis OD Corneal, Mean [7]: 0.0±0.0 and 0 | Keratitis OD Nasal, Mean [7]: 0.63±0.63 and 0.625 | Keratitis OD Temporal, Mean [7]: 0.55±0.60 and 0.5536 | Keratitis OS Corneal, Mean [7]: 0.16±0.49 and 0.1607 | Keratitis OS Nasal, Mean [7]: 0.75±0.57 and 0.75 | Keratitis OS Temporal, Mean [7]: 0.70±0.57 and 0.6964 | Anterior Blepharitis, Mean [6]: 0.32±0.78 and 0.3214 | Obstruction, Mean [6]: 1.05±0.71 and 1.054 | Turbidity, Mean [6]: 1.80±0.83 and 1.804 | Vascularity, Mean [6]: 1.13±0.91 and 1.125 | Zone A, Mean [6]: 2.71±0.80 and 2.714 | Global Evaluation, Mean [6]: 3.55±1.30 and 3.554 | increase in Schirmer's I scores (follow-up 1, low Schirmer's, n=27): approximately 40% | percent reduction in Global Evaluation score from baseline [8]: 22.98% | percent reduction in Turbidity score from baseline [8]: 30.70% | percent reduction in Vascularity score from baseline [8]: 30.48% | percent reduction in Zone A score from baseline [8]: 22.65% | percent reduction in Global Evaluation score from baseline [9]: 27.52% | percent reduction in Obstruction score from baseline [9]: 31.23% | percent reduction in Turbidity score from baseline [9]: 41.82% | percent reduction in Vascularity score from baseline [9]: 24.51% | percent reduction in Zone A score from baseline [9]: 19.86% | Schirmer's OD, Mean [10]: 8.8±6.7 and 8.8 | Schirmer's OS, Mean [10]: 7.22±5.19 and 7.222 | Vision OD, Mean [10]: 0.07±0.10 log Mar units and 0.06633 log Mar units | Vision OS, Mean [10]: 0.09±0.14 log Mar units and 0.08737 log Mar units | Keratitis OD Corneal, Mean [11]: 0.0±0.0 and 0 | Keratitis OD Nasal, Mean [11]: 0.60±0.66 and 0.6 | Keratitis OD Temporal, Mean [11]: 0.65±0.71 and 0.65 | Keratitis OS Corneal, Mean [11]: 0.22±0.44 and 0.2222 | Keratitis OS Nasal, Mean [11]: 1.28±0.57 and 1.278 | Keratitis OS Temporal, Mean [11]: 1.0±0.66 and 1 | Anterior Blepharitis, Mean [10]: 0.3±0.67 and 0.3 | Obstruction, Mean [10]: 1.35±1.06 and 1.35 | Turbidity, Mean [10]: 1.95±0.76 and 1.95 | Vascularity, Mean [10]: 1.1±0.88 and 1.1 | Zone A, Mean [10]: 2.55±0.98 and 2.55 | Global Evaluation, Mean [10]: 4.15±2.07 and 4.15 | Schirmer's OD, Mean [12]: 17.07±10.10 and 17.07 | Schirmer's OS, Mean [12]: 17.50±10.42 and 17.5 | Vision OD, Mean [12]: 0.07±0.20 log Mar units and 0.07437 log Mar units | Vision OS, Mean [12]: 0.09±0.15 log Mar units and 0.08826 log Mar units | Keratitis OD Corneal, Mean [13]: 0.0±0.0 and 0 | Keratitis OD Nasal, Mean [13]: 0.64±0.72 and 0.6429 | Keratitis OD Temporal, Mean [13]: 0.54±0.68 and 0.5357 | Keratitis OS Corneal, Mean [13]: 0.14±0.52 and 0.1429 | Keratitis OS Nasal, Mean [13]: 0.82±0.80 and 0.8214 | Keratitis OS Temporal, Mean [13]: 0.71±0.80 and 0.7143 | Anterior Blepharitis, Mean [12]: 0.29±0.50 and 0.2857 | Obstruction, Mean [12]: 1.12±0.83 and 1.116 | Turbidity, Mean [12]: 1.96±0.62 and 1.964 | Vascularity, Mean [12]: 1.42±0.84 and 1.42 | Zone A, Mean [12]: 2.59±0.82 and 2.589 | Global Evaluation, Mean [12]: 4.32±1.53 and 4.321 | Schirmer's OD, mean change [14]: 2.9±4.93 and 2.9 | Schirmer's OS, mean change [14]: 1.56±6.25 and 1.556 | Vision OD, mean change [14]: 0.06±0.10 log units and 0.06011 log units | Vision OS, mean change [14]: 0.02±0.07 log units and 0.0185 log units | mean improvement in obstruction score [14]: 0.6±1.13 | Keratitis OD Corneal, mean change [15]: 0 | Keratitis OD Nasal, mean change [15]: 0.15 | Keratitis OD Temporal, mean change [15]: 0.05 | Keratitis OS Corneal, mean change [15]: 0.1111 | Keratitis OS Nasal, mean change [15]: −0.2222 | Keratitis OS Temporal, mean change [15]: −0.1667 | Anterior Blepharitis, mean change [14]: −0.1±0.57 and −0.1 | Obstruction, mean change [14]: −0.6 | Turbidity, mean change [14]: 0.15±0.82 and 0.15 | Vascularity, mean change [14]: 0.3±0.63 and 0.3 | Zone A, mean change [14]: 0.25±0.75 and 0.25 | Global Evaluation, mean change [14]: 0.25±2.55 and 0.25 | Schirmer's OD, mean change [16]: 1.77±9.01 and 1.778 | improvement in self-reported global assessment scores [16]: 0.77±1.36 | mean improvement in obstruction score [16]: 0.06±0.87 | mean improvement in turbidity score [16]: 0.16±1.00 | mean improvement in vascularity score [16]: 0.29±0.79 | Keratitis OD Corneal, mean change [17]: 0.0±0.0 and 0 | Keratitis OD Temporal, mean change [17]: 0.017±0.57 and 0.01786 | Keratitis OS Corneal, mean change [17]: 0.018±0.21 and 0.01786 | Anterior Blepharitis, mean change [16]: 0.04±0.64 and 0.03571 | Obstruction, mean change [16]: −0.0625 | Turbidity, mean change [16]: −0.1607 | Vascularity, mean change [16]: −0.2946 | Zone A, mean change [16]: 0.13±0.69 and 0.125 | Global Evaluation, mean change [16]: −0.7679 | time to improved symptoms of ocular irritation (moderate to severe symptomatic MGD, 'as early as'): 2 weeks | side effects after topical administration (patients of the clinical trial): A small percentage of the patients reported a mild temporary burning sensation in the eye | Subjective Global Assessment, Mean (post-treatment follow-up 1, low Schirmer's (5 or less), n=27): 3.78±1.68 and 3.778 | Schirmer's OD, Mean [18]: 7.52±7.42 mm and 7.519 mm | Schirmer's OS, Mean [18]: 6.92±5.34 mm and 6.923 mm | Vision OD, Mean [18]: 0.05±0.12 log Mar units and 0.04681 log Mar units | Vision OS, Mean [18]: 0.13±0.30 log Mar units and 0.1307 log Mar units | Keratitis OD Corneal, Mean [19]: 0.07±0.38 and 0.07407 | Keratitis OD Nasal, Mean [19]: 0.93±0.84 and 0.9259 | Keratitis OD Temporal, Mean [19]: 0.74±0.91 and 0.7407 | Keratitis OS Corneal, Mean [19]: 0.15±0.37 and 0.1538 | Keratitis OS Nasal, Mean [19]: 1.19±0.87 and 1.192 | Keratitis OS Temporal, Mean [19]: 0.96±0.82 and 0.9615 | Anterior Blepharitis, Mean [18]: 0.41±0.71 and 0.4074 | Obstruction, Mean [18]: 1.13±1.05 and 1.13 | Turbidity, Mean [18]: 1.89±0.91 and 1.889 | Vascularity, Mean [18]: 0.93±0.829 and 0.9259 | Zone A, Mean [18]: 2.46±1.13 and 2.463 | Subjective Global Assessment, Mean (post-treatment follow-up 1, normal Schirmer's (>5), n=75): 4.03±1.57 and 4.033 | Schirmer's OD, Mean [20]: 16.47±9.75 mm and 16.47 mm | Schirmer's OS, Mean [20]: 16.95±9.61 mm and 16.95 mm | Vision OD, Mean [20]: 0.08±0.18 log Mar units and 0.07686 log Mar units | Vision OS, Mean [20]: 0.11±0.22 log Mar units and 0.1115 log Mar units | Keratitis OD Corneal, Mean [21]: 0.007±0.06 and 0.006757 | Keratitis OD Nasal, Mean [21]: 0.64±0.68 and 0.6419 | Keratitis OD Temporal, Mean [21]: 0.45±0.64 and 0.4527 | Keratitis OS Corneal, Mean [21]: 0.07±0.34 and 0.06757 | Keratitis OS Nasal, Mean [21]: 0.72±0.73 and 0.723 | Keratitis OS Temporal, Mean [21]: 0.57±0.69 and 0.5743 | Anterior Blepharitis, Mean [20]: 0.39±0.67 and 0.3867 | Obstruction, Mean [20]: 0.98±0.69 and 0.9833 | Turbidity, Mean [20]: 1.75±0.75 and 1.753 | Vascularity, Mean [20]: 1.11±0.829 and 1.11 | Zone A, Mean [20]: 2.51±0.88 and 2.513
